Test results reported in patent US20030114360A1 (priority 2000, published 2003).

Tests used:
[1] = target: PrP cell surface receptor on H4 cells (ATCC HTB-148)
[2] = target: PrP cell surface receptor on COS-7 cells (ATCC CRL-1651)
PrP-AP = assay type: binding

## Copaxone
[1]
  IC50: 500 nM
[2]
  IC50: 500 nM

## OC[C@@H](O)[C@@H](O)[C@H](O)[C@H](O)CO [mannitol]
PrP-AP
  inhibition of PrP-AP binding to cell surfaces: does not participate in the inhibition of binding

## GGSRYPGQGSP [control 11 mer]
PrP-AP
  inhibition of PrP-AP binding to cell surfaces by peptide: Only the peptide with the PrP amino terminal sequence inhibited

## KKRPKPGGWNT [N-term 11 mer]
PrP-AP
  inhibition of PrP-AP binding to cell surfaces by peptide: inhibited
